Reference: patent US10532065B2, “Bisphosphonic acid derivative and application for same” (NAGASAKI UNIVERSITY, priority 2014, dated 2020)
pEC50, pIC50: −log10 of the molar value. Where “and” joins values, the source holds several entries; their conditions need not be identical. Equal values may be shown once. Read-outs that look alike come from different tables or passages of the source.

Legend:
Type in all cases: cell-based
U937 cells = assay: U937 cell growth inhibition (direct antitumor action, CellTiterGlo); settings: for pIC50: U937 cell growth inhibition, 4 days culture; for direct antitumor activity (in words): U937 growth inhibition
Procedure: (§1) The direct antitumor action of bisphosphonic acid POM ester and bisphosphonic acid was studied by comparison using U937.
(§2) The direct antitumor action of various bisphosphonic acid POM esters was studied by comparison using U937 and EJ-1. The measurement was performed according to Experimental Example 2 and Experimental Example 4.

EJ-1 cells = assay: EJ-1 cell growth inhibition (direct antitumor action, CellTiterGlo); settings: for pIC50: EJ-1 (bladder cancer) growth inhibition, 4 days culture; for direct antitumor activity (in words): EJ-1 growth inhibition
Procedure: as §1
(§3) The direct antitumor action of bisphosphonic acid POM ester derivatives and bisphosphonic acids was studied by comparison using EJ-1. It was performed in the same manner as in Experimental Example 1 except that EJ-1 was used as the cell to be used. For recovery of the cells, a conventional EDTA trypsin treatment was performed.
as §3, with “POM esters” for “POM ester derivatives”, “Example 2” for “Example 1”
as §2

EJ-1 cells / γδ T cells = assay: TNF-α production from γδ T cells stimulated by compound-pretreated EJ-1 cells (indirect antitumor action, ELISA); settings: for pEC50: EJ-1 pretreated 4 hr with compound, 16 hr with γδ T cells, TNF-α ELISA, read-out: TNF-α50; for TNF-α production induction activity (in words): EJ-1 pretreated with compound, γδ T cells
Procedure: The indirect antitumor action of bisphosphonic acid POM esters and bisphosphonic acids was studied by comparison using EJ-1. In principle, EJ-1 is treated with a compound, washed, and reacted with γδ T cells, and the cytotoxic ability is studied by comparison, by quantifying TNF-α produced by γδ T cells during cell disordering. TNF-α is generally used as an index of γδ T cell induction ability and/or proliferative capacity, and γδ T cells are considered to be induced and/or proliferated in proportion to the TNF-α amount (Journal of Immunology, 154, 5986-5994 (1995)). Since the produced TNF-α is what is called a tumor necrosis factor, it is considered to have an action to lower proliferation of cancer cells or induce cell death.
Thereto was added a solution (500 μl) of compounds 3, 5, 6, 7, which are bisphosphonic acid POM ester derivatives, obtained by serially diluting 10 mM stock solution 10-fold from 20 μM, or a solution (500 μl) of bisphosphonic acid 10, 12, 13, 14 compound obtained by serially diluting 10-fold from 200 μM, and the cells were suspended well. These conical tubes were stood at 37° C. for 4 hr, and the cells were washed 3 times with 5 ml of culture medium. To these cells was added 500 μl of medium, and the cells were suspended well. […] The cell culture medium was suspended well, and the plate was centrifuged at 1,700 rpm, 4° C. for 2 min and the culture supernatant (150 μl) was taken and placed in another round-bottomed 96 well plate. The plate was frozen at −80° C. overnight, left standing at room temperature for 1 hr, stirred well and 100 μl thereof was subjected to ELISA of TNF-α. The content of TNF-α was calculated from the analytical curve of TNF-α. These were performed in triplicate, and a graph showing bisphosphonic acid POM ester derivative and the corresponding bisphosphonic acid as one pair was plotted. […] The results of bisphosphonic acid POM ester derivative are shown by -●-, and the results of bisphosphonic acid are shown by -◯-.
The indirect antitumor action of bisphosphonic acid POM esters and bisphosphonic acids was quantitatively studied by comparison using EJ-1. […] Thereto was added a solution (500 μl) of a bisphosphonic acid POM ester derivative obtained by serially diluting 10 mM stock solution 10-fold from 20 μM, or a bisphosphonic acid solution (500 μl) serially diluted 10-fold from 200 μM was added, and the cells were suspended well. These conical tubes were stood at 37° C. for 4 hr, and the cells were washed 3 times with 5 ml of culture medium. To these cells was added 500 μl of medium, and the cells were suspended well. […] The cell culture medium was suspended well, and the plate was centrifuged at 1,700 rpm, 4° C. for 2 min and the culture supernatant (150 μl) was taken and placed in another round-bottomed 96 well plate. The plate was frozen at −80° C. overnight, left standing at room temperature for 1 hr, stirred well and 100 μl thereof was subjected to ELISA of TNF-α. The content of TNF-α was calculated from the analytical curve of TNF-α. These were performed in triplicate, and a half of the concentration of compounds 1-7, which are bisphosphonic acid POM ester derivatives, and compounds 8-14, which are bisphosphonic acids, necessary for producing the maximum amount of TNF-α from γδ T cells was calculated as TNF-α50, and summarized in Table 6.
Therefore, the TNF-α50 value of various bisphosphonic acid POM ester derivatives was calculated. […] Thereto was added a solution (500 μl) of compounds 1-7 and 15-39, which are bisphosphonic acid POM ester derivatives, and compound 42, which is other bisphosphonic acid ester derivative, obtained by serially diluting 10 mM stock solution 10-fold from 20 μM, and the cells were suspended well. These conical tubes were stood at 37° C. for 4 hr, and the cells were washed 3 times with 5 ml of culture medium. To these cells was added 500 μl of medium, and the cells were suspended well. […]

Row | pIC50 (U937 cells) | pIC50 (EJ-1 cells) | pEC50 (EJ-1 cells / γδ T cells) | pIC50 (U937 cells; Homo sapiens, U-937, 96 h) | pIC50 (EJ-1 cells; EJ1, 96 h) | pEC50 (EJ-1 cells / γδ T cells; EJ1) | SMILES | direct antitumor activity (in words) (U937 cells) | direct antitumor activity (in words) (EJ-1 cells) | TNF-α production induction activity (in words) (EJ-1 cells / γδ T cells)
1 | 4.96 | 5.07 | 5.72 | – | – | – | CC(C)(C)C(=O)OCOP(=O)(OCOC(=O)C(C)(C)C)C(CNc1nncs1)P(=O)(OCOC(=O)C(C)(C)C)OCOC(=O)C(C)(C)C [Compound 38, tetrakispivaloyloxymethyl 2-(1,3,4-thiadiazol-2-ylamino)ethylidene-1,1-bisphosphonate] | – | – | –
2 | 5.15 | 4.80 | < 5.00 | – | – | – | CC(C)(C)C(=O)OCOP(=O)(OCOC(=O)C(C)(C)C)C(CNc1ncccc1OCc1ccccc1)P(=O)(OCOC(=O)C(C)(C)C)OCOC(=O)C(C)(C)C [Compound 15, tetrakispivaloyloxymethyl 2-(3-benzyloxypyridin-2-ylamino)ethylidene-1,1-bisphosphonate] | – | – | –
3 | – | – | – | 3.70 | 3.54 | < 4.00 | O=P(O)(O)C(CNc1ccc(Br)cn1)P(=O)(O)O [Compound 11, 2-(5-bromopyridin-2-ylamino)ethylidene-1,1-bisphosphonic Acid, reference compound] | – | – | –
4 | 5.25 | 5.27 | 6.32 | – | – | – | Cc1ccc(NCC(P(=O)(OCOC(=O)C(C)(C)C)OCOC(=O)C(C)(C)C)P(=O)(OCOC(=O)C(C)(C)C)OCOC(=O)C(C)(C)C)nc1 [Compound 3, tetrakispivaloyloxymethyl 2-(5-methylpyridin-2-ylamino)ethylidene-1,1-bisphosphonate] | – | – | –
5 | 5.96 | 5.46 | < 5.00 | – | – | – | CC(C)(C)C(=O)OCOP(=O)(OCOC(=O)C(C)(C)C)C(CNc1nc(-c2ccccc2)cs1)P(=O)(OCOC(=O)C(C)(C)C)OCOC(=O)C(C)(C)C [Compound 35, tetrakispivaloyloxymethyl 2-(4-phenylthiazol-2-ylamino)ethylidene-1,1-bisphosphonate] | high activity | high activity | –
6 | 5.46 | 5.35 | 5.47 | – | – | – | CCCCCCCCc1cccnc1NCC(P(=O)(OCOC(=O)C(C)(C)C)OCOC(=O)C(C)(C)C)P(=O)(OCOC(=O)C(C)(C)C)OCOC(=O)C(C)(C)C [Compound 23, tetrakispivaloyloxymethyl 2-(3-octanylpyridin-2-ylamino)ethylidene-1,1-bisphosphonate] | – | – | –
7 | 5.17 | 5.02 | < 5.00 | – | – | – | CC(C)(C)C(=O)OCOP(=O)(OCOC(=O)C(C)(C)C)C(CNc1ccc(-c2ccccc2)cn1)P(=O)(OCOC(=O)C(C)(C)C)OCOC(=O)C(C)(C)C [Compound 19, tetrakispivaloyloxymethyl 2-(5-phenylpyridin-2-ylamino)ethylidene-1,1-bisphosphonate] | – | – | –
8 | 5.21 | 5.06 | < 5.00 | – | – | – | COc1ccc(-c2cccnc2NCC(P(=O)(OCOC(=O)C(C)(C)C)OCOC(=O)C(C)(C)C)P(=O)(OCOC(=O)C(C)(C)C)OCOC(=O)C(C)(C)C)cc1 [Compound 25, tetrakispivaloyloxymethyl 2-[3-(4-methoxyphenyl)pyridin-2-ylamino]ethylidene-1,1-bisphosphonate] | – | – | –
9 | 5.44 | 5.11 | 6.15 | – | – | – | CC(C)(C)C(=O)OCOP(=O)(OCOC(=O)C(C)(C)C)C(CNc1ccc(Br)cn1)P(=O)(OCOC(=O)C(C)(C)C)OCOC(=O)C(C)(C)C [Compound 4, tetrakispivaloyloxymethyl 2-(5-bromopyridin-2-ylamino)ethylidene-1,1-bisphosphonate] | – | – | –
10 | 5.60 | 5.96 | 7.20 | – | – | – | Cc1cnc(NCC(P(=O)(OCOC(=O)C(C)(C)C)OCOC(=O)C(C)(C)C)P(=O)(OCOC(=O)C(C)(C)C)OCOC(=O)C(C)(C)C)s1 [Compound 34, tetrakispivaloyloxymethyl 2-(5-methylthiazol-2-ylamino)ethylidene-1,1-bisphosphonate] | high activity | high activity | high activity
11 | 5.18 | 4.92 | < 5.00 | – | – | – | CC(C)(C)C(=O)OCOP(=O)(OCOC(=O)C(C)(C)C)C(CNc1ccnc(Br)c1)P(=O)(OCOC(=O)C(C)(C)C)OCOC(=O)C(C)(C)C [Compound 29, tetrakispivaloyloxymethyl 2-(2-bromopyridin-4-ylamino)ethylidene-1,1-bisphosphonate] | – | – | –
12 | 5.28 | 5.32 and 5.24 | 7.16 | – | – | – | CC(C)(C)C(=O)OCOP(=O)(OCOC(=O)C(C)(C)C)C(CNc1ccc(F)cn1)P(=O)(OCOC(=O)C(C)(C)C)OCOC(=O)C(C)(C)C [Compound 5, tetrakispivaloyloxymethyl 2-(5-fluoropyridin-2-ylamino)ethylidene-1,1-bisphosphonate] | – | – | high activity
13 | – | – | – | 4.54 | 5.10 | 4.32 | Cc1ccc(NCC(P(=O)(O)O)P(=O)(O)O)nc1 [Compound 10, 2-(methylpyridin-2-ylamino)ethylidene-1,1-bisphosphonic Acid, reference compound] | – | – | –
14 | 5.05 | 4.89 | 5.34 | – | – | – | CC(C)(C)C(=O)OCOP(=O)(OCOC(=O)C(C)(C)C)C(CNc1ncccc1O)P(=O)(OCOC(=O)C(C)(C)C)OCOC(=O)C(C)(C)C [Compound 27, tetrakispivaloyloxymethyl 2-(3-hydroxypyridin-2-ylamino)ethylidene-1,1-bisphosphonate] | – | – | –
15 | 5.10 | 4.80 | < 5.00 | – | – | – | Cc1cc(NCC(P(=O)(OCOC(=O)C(C)(C)C)OCOC(=O)C(C)(C)C)P(=O)(OCOC(=O)C(C)(C)C)OCOC(=O)C(C)(C)C)no1 [Compound 37, tetrakispivaloyloxymethyl 2-(5-methylisoxazol-3-ylamino)ethylidene-1,1-bisphosphonate] | – | – | –
16 | – | – | – | 4.17 | 3.59 | 4.31 | O=P(O)(O)C(CNc1ccc(F)cn1)P(=O)(O)O [Compound 12, 2-(5-fluoropyridin-2-ylamino)ethylidene-1,1-bisphosphonic Acid, reference compound] | – | – | –
17 | – | – | – | 3.01 | 4.89 | < 4.00 | Cc1cccnc1NCC(P(=O)(O)O)P(=O)(O)O [Compound 8, 2-(3-methylpyridin-2-ylamino)ethylidene-1,1-bisphosphonic Acid, reference compound] | – | – | –
